# Assay results: US11911388B2, “Treatment for diabetes in patients with insufficient glycemic control despite therapy with an oral or non-oral antidiabetic drug” (Boehringer Ingelheim International GmbH, priority 2008, dated 2024)
# Entries after “also recorded” stand apart in the source; their conditions may differ.
# How the values were obtained:
# [1] = tested on: db/db mice; assay: Insulin during OGTT (2 g/kg) on day 59 in db/db mice; assay type: in vivo, mouse; details: 3 mg/kg p.o. daily, day 59, OGTT 2 g/kg, t=15 min
# Text: Sulfonylurea (SU) like glibenclamide are one of the most frequently used drugs in diabetes treatment. Long-term treatment with SU causes elevated basal insulin secretion and decreased glucose-stimulated insulin secretion. These characteristics may play an important role for the development of hypoglycemia and secondary drug failure. […] In addition, correlating with age of the animals pancreatic β-cells of aging db/db mice fails to compensate the high glucose excursion with enhanced insulin secretion. Therefore this model is appropriate to study the glibenclamide induced secondary drug failure in comparison to a DPP-4 inhibitor (e.g. BI 1356).
# Female db/db mice at 5 weeks of age, are obtained from Charles River, Germany. […]
# The compound solutions are administered daily at 08.00 AM on experimental days 0-59 by per oral gavage using a gastric tube connected to a 3 ml syringe (Luer-lock™, Becton). […] Body weight food intake and water intake is recorded daily for the first two and twice weekly for the remaining period. On experimental day 54 blood glucose and HbA1c levels are determined in semi-fed state, on day 59 an OGTT (2 g/kg) is performed.
# Blood samples for determination of “fed” levels blood glucose and HbA1c are performed at 10.00 AM on day 54. […] At day 59 an OGTT (2 g/kg) is performed following an over-night fast of the animals and insulin is detected at t=15 min. […]
# [2] = tested on: db/db mice; assay: HbA1c and blood glucose after 54 day treatment of db/db mice (SU secondary drug failure model); assay type: in vivo, mouse; details: 3 mg/kg p.o. daily, day 54, female db/db mice; for glucose values compared to control: semi-fed
# Text: Sulfonylurea (SU) like glibenclamide are one of the most frequently used drugs in diabetes treatment. Long-term treatment with SU causes elevated basal insulin secretion and decreased glucose-stimulated insulin secretion. These characteristics may play an important role for the development of hypoglycemia and secondary drug failure. […] In addition, correlating with age of the animals pancreatic β-cells of aging db/db mice fails to compensate the high glucose excursion with enhanced insulin secretion. Therefore this model is appropriate to study the glibenclamide induced secondary drug failure in comparison to a DPP-4 inhibitor (e.g. BI 1356). Female db/db mice at 5 weeks of age, are obtained from Charles River, Germany. Animals are housed in groups of 5-6 animals under a 12:[…] cycle (lights on at 04:00 AM and lights off at 04:00 PM) in temperature and humidity controlled rooms. All animals have free access to regular rodent chow (Altromin standard #1324 chow, Denmark) and water ad libitum. The compound solutions are administered daily at 08.00 AM on experimental days 0-59 by per oral gavage using a gastric tube connected to a 3 ml syringe (Luer-lockTM, Becton). Groups of 12 animals are used: vehicle, 0.5% Natrosol; BI 1356 3 mg/kg; glibenclamide 3 mg/kg. Body weight food intake and water intake is recorded daily for the first two and twice weekly for the remaining period. On experimental day 54 blood glucose and HbA1c levels are determined in semi-fed state, on day 59 an OGTT (2 g/kg) is performed. Blood samples for determination of “fed” levels blood glucose and HbA1c are performed at 10.00 AM on day 54. Prior to blood sampling animals are transferred to clean cages with no food two hours before blood sampling. At day 59 an OGTT (2 g/kg) is performed following an over-night fast of the animals and insulin is detected at t=15 min. For each data point, 10 μl blood is drawn from the tip of the tail into a microcapillary tube and measured using a Biosen S line glucose analyzer. HbA1c: are measured using a standard enzyme assay kit on a fully automated analyzer (Bayer).
SMILES,increase in insulin during OGTT [1],HbA1c compared to control [2],glucose values compared to control [2],"form and route of excretion (human, in vivo)",excretion via the kidney (therapeutic oral dose levels)
CC#CCn1c(N2CCC[C@@H](N)C2)nc2c1c(=O)n(Cc1nc(C)c3ccccc3n1)c(=O)n2C [BI 1356],able to respond to the increased glucose levels with an up-regulation of insulin; also recorded: superior to glibenclamide,improves; also recorded: superior to glibenclamide,improves; also recorded: superior to glibenclamide,primarily excreted unchanged via the bile,< 7 % of the administered oral dose
"COc1ccc(Cl)cc1C(=O)NCCc1ccc(S(=O)(=O)NC(=O)NC2CCCCC2)cc1 [glibenclamide, reference compound]",,impairs,impairs,,
